# Data taken from patent US6710066B2, “Photochemotherapeutic method using 5-aminolevulinic acid and other precursors of endogenous porphyrins” (priority 1989, dated 2004).
# Experiments:
# [1] = test system: P. yoelii; test: ALA-induced fluorescence within erythrocytes parasitized by P. yoelii, mice given ALA; conditions: ALA injected into infected mice
# [2] = following intravenous injection; occasionally more than two months; cited from earlier work
# [3] = very large doses; cited from earlier work
Structure (SMILES),PpIX accumulation in non-infected erythrocytes and leukocytes [1],PpIX accumulation in plasmodia within erythrocytes [1],persistence of photosensitizing amount of porphyrin in the skin [2],effect on motor nerve conduction velocity [3]
NCC(=O)CCC(=O)O [5-aminolevulinic acid (ALA)],no such accumulation of protoporphyrin,accumulation of fluorescing and photosensitizing concentrations of protoporphyrin within metabolically active parasites,,
"CC1=C(CCC(=O)O)c2cc3[nH]c(cc4nc(cc5[nH]c(cc1n2)c(C)c5C(C)O)C(C)=C4C(C)O)c(C)c3CCC(=O)O (stereo not shown) [HpIX, Hematoporphyrin IX, reference compound]",,,at least two weeks,transient decrease in motor nerve conduction velocity
